{"source": "patent US20240415914A1", "about": "“Water Dispersible Cannabinoid Compositions” (priority 2021, published 2024)", "key": {"[1]": {"assay_type": "physicochemical", "conditions": "stored at room temperature (21-25° C.)", "procedure": "At each time period, 0.05 g of powder was dissolved in 10 ml-15 of ethanol, diluted to fall within the analytical range, and injected into the LCMSMS for analysis."}, "[2]": {"experiment": "Stability of cannabinoid and Vitamin E components of Beverage 2 (AB Red) stored at 8° C. and 21-25° C., LCMSMS over 570 days", "conditions": "8° C.", "protocol": "The LCMSMS was calibrated for 0-50 ng/ml cannabinoids with the same resin material used in the preparation of the concentrates. At each time period, 100 μml of beverage was diluted with 10 ml of methanol and injected into the LCMSMS for analysis."}}, "note": "Like-named read-outs stand apart in the source and are kept apart here."}
{"compound": "Cc1c(C)c2c(c(C)c1O)CC[C@@](C)(CCC[C@H](C)CCC[C@H](C)CCCC(C)C)O2", "note": "[α-Tocopherol]", "values": [{"measurement": "Stability in Powder Concentrate (content by LCMSMS)", "setting": "[1]; day 0", "value": 4.85, "unit": "mg/g powder"}, {"measurement": "Stability in Powder Concentrate (content by LCMSMS)", "setting": "[1]; day 1", "value": 4.89, "unit": "mg/g powder"}, {"measurement": "Stability in Powder Concentrate (content by LCMSMS)", "setting": "[1]; day 2", "value": 4.79, "unit": "mg/g powder"}, {"measurement": "Stability in Powder Concentrate (content by LCMSMS)", "setting": "[1]; day 3", "value": 4.69, "unit": "mg/g powder"}, {"measurement": "Stability in Powder Concentrate (content by LCMSMS)", "setting": "[1]; day 5", "value": 4.99, "unit": "mg/g powder"}, {"measurement": "Stability in Powder Concentrate (content by LCMSMS)", "setting": "[1]; day 8", "value": 4.69, "unit": "mg/g powder"}, {"measurement": "Stability in Powder Concentrate (content by LCMSMS)", "setting": "[1]; day 9", "value": 4.75, "unit": "mg/g powder"}, {"measurement": "Stability in Powder Concentrate (content by LCMSMS)", "setting": "[1]; day 10", "value": 4.77, "unit": "mg/g powder"}, {"measurement": "Stability in Powder Concentrate (content by LCMSMS)", "setting": "[1]; day 11", "value": 5.04, "unit": "mg/g powder"}, {"measurement": "Stability in Powder Concentrate (content by LCMSMS)", "setting": "[1]; day 12", "value": 5.01, "unit": "mg/g powder"}, {"measurement": "Stability in Powder Concentrate (content by LCMSMS)", "setting": "[1]; day 15", "value": 5.07, "unit": "mg/g powder"}, {"measurement": "Stability in Powder Concentrate (content by LCMSMS)", "setting": "[1]; day 16", "value": 4.96, "unit": "mg/g powder"}, {"measurement": "Stability in Powder Concentrate (content by LCMSMS)", "setting": "[1]; day 17", "value": 4.94, "unit": "mg/g powder"}, {"measurement": "Stability in Powder Concentrate (content by LCMSMS)", "setting": "[1]; day 18", "value": 4.77, "unit": "mg/g powder"}, {"measurement": "Stability in Powder Concentrate (content by LCMSMS)", "setting": "[1]; day 19", "value": 5.04, "unit": "mg/g powder"}, {"measurement": "Stability in Powder Concentrate (content by LCMSMS)", "setting": "[1]; day 22", "value": 4.94, "unit": "mg/g powder"}, {"measurement": "Stability in Powder Concentrate (content by LCMSMS)", "setting": "[1]; day 23", "value": 4.91, "unit": "mg/g powder"}, {"measurement": "Stability in Powder Concentrate (content by LCMSMS)", "setting": "[1]; day 24", "value": 5.00, "unit": "mg/g powder"}, {"measurement": "Stability in Powder Concentrate (content by LCMSMS)", "setting": "[1]; day 25", "value": 5.06, "unit": "mg/g powder"}, {"measurement": "Stability in Powder Concentrate (content by LCMSMS)", "setting": "[1]; day 26", "value": 4.84, "unit": "mg/g powder"}, {"measurement": "Stability in Powder Concentrate (content by LCMSMS)", "setting": "[1]; day 29", "value": 4.85, "unit": "mg/g powder"}, {"measurement": "Stability in Powder Concentrate (content by LCMSMS)", "setting": "[1]; day 30", "value": 4.83, "unit": "mg/g powder"}, {"measurement": "Stability in Powder Concentrate (content by LCMSMS)", "setting": "[1]; day 60", "value": 4.91, "unit": "mg/g powder"}, {"measurement": "Stability in Powder Concentrate (content by LCMSMS)", "setting": "[1]; day 90", "value": 4.96, "unit": "mg/g powder"}, {"measurement": "Stability in Powder Concentrate (content by LCMSMS)", "setting": "[1]; day 120", "value": 4.93, "unit": "mg/g powder"}, {"measurement": "Stability in Powder Concentrate (content by LCMSMS)", "setting": "[1]; day 150", "value": 4.69, "unit": "mg/g powder"}, {"measurement": "Stability in Powder Concentrate (content by LCMSMS)", "setting": "[1]; day 180", "value": 4.70, "unit": "mg/g powder"}, {"measurement": "Stability in Powder Concentrate (content by LCMSMS)", "setting": "[1]; day 210", "value": 4.84, "unit": "mg/g powder"}, {"measurement": "Stability in Powder Concentrate (content by LCMSMS)", "setting": "[1]; day 240", "value": 5.03, "unit": "mg/g powder"}, {"measurement": "Stability in Powder Concentrate (content by LCMSMS)", "setting": "[1]; day 270", "value": 4.78, "unit": "mg/g powder"}, {"measurement": "Stability in Powder Concentrate (content by LCMSMS)", "setting": "[1]; day 300", "value": 4.81, "unit": "mg/g powder"}, {"measurement": "Stability in Powder Concentrate (content by LCMSMS)", "setting": "[1]; day 330", "value": 4.81, "unit": "mg/g powder"}, {"measurement": "Stability in Powder Concentrate (content by LCMSMS)", "setting": "[1]; day 360", "value": 4.83, "unit": "mg/g powder"}, {"measurement": "Stability in Powder Concentrate (content by LCMSMS)", "setting": "[1]; day 390", "value": 4.91, "unit": "mg/g powder"}, {"measurement": "Stability in Powder Concentrate (content by LCMSMS)", "setting": "[1]; day 420", "value": 4.69, "unit": "mg/g powder"}, {"measurement": "Stability in Powder Concentrate (content by LCMSMS)", "setting": "[1]; day 450", "value": 5.00, "unit": "mg/g powder"}, {"measurement": "Stability in Powder Concentrate (content by LCMSMS)", "setting": "[1]; day 480", "value": 4.98, "unit": "mg/g powder"}, {"measurement": "Stability in Powder Concentrate (content by LCMSMS)", "setting": "[1]; day 510", "value": 5.02, "unit": "mg/g powder"}, {"measurement": "Stability in Powder Concentrate (content by LCMSMS)", "setting": "[1]; day 540", "value": 5.03, "unit": "mg/g powder"}, {"measurement": "Stability in Powder Concentrate (content by LCMSMS)", "setting": "[1]; day 570", "value": 4.72, "unit": "mg/g powder"}, {"measurement": "Stability of Vitamin Es in AB Red", "setting": "[2]; 0 days", "value": 25.3, "unit": "µg/mL"}, {"measurement": "Stability of Vitamin Es in AB Red", "setting": "[2]; 1 days", "value": 25.2, "unit": "µg/mL"}, {"measurement": "Stability of Vitamin Es in AB Red", "setting": "[2]; 2 days", "value": 24.9, "unit": "µg/mL"}, {"measurement": "Stability of Vitamin Es in AB Red", "setting": "[2]; 3 days", "value": 25.3, "unit": "µg/mL"}, {"measurement": "Stability of Vitamin Es in AB Red", "setting": "[2]; 5 days", "value": 24.2, "unit": "µg/mL"}, {"measurement": "Stability of Vitamin Es in AB Red", "setting": "[2]; 8 days", "value": 23.7, "unit": "µg/mL"}, {"measurement": "Stability of Vitamin Es in AB Red", "setting": "[2]; 9 days", "value": 24.6, "unit": "µg/mL"}, {"measurement": "Stability of Vitamin Es in AB Red", "setting": "[2]; 10 days", "value": 24.9, "unit": "µg/mL"}, {"measurement": "Stability of Vitamin Es in AB Red", "setting": "[2]; 11 days", "value": 23.9, "unit": "µg/mL"}, {"measurement": "Stability of Vitamin Es in AB Red", "setting": "[2]; 12 days", "value": 24.4, "unit": "µg/mL"}, {"measurement": "Stability of Vitamin Es in AB Red", "setting": "[2]; 15 days", "value": 25.6, "unit": "µg/mL"}, {"measurement": "Stability of Vitamin Es in AB Red", "setting": "[2]; 16 days", "value": 24.5, "unit": "µg/mL"}, {"measurement": "Stability of Vitamin Es in AB Red", "setting": "[2]; 17 days", "value": 23.6, "unit": "µg/mL"}, {"measurement": "Stability of Vitamin Es in AB Red", "setting": "[2]; 18 days", "value": 24.1, "unit": "µg/mL"}, {"measurement": "Stability of Vitamin Es in AB Red", "setting": "[2]; 19 days", "value": 24.0, "unit": "µg/mL"}, {"measurement": "Stability of Vitamin Es in AB Red", "setting": "[2]; 22 days", "value": 25.0, "unit": "µg/mL"}, {"measurement": "Stability of Vitamin Es in AB Red", "setting": "[2]; 23 days", "value": 23.2, "unit": "µg/mL"}, {"measurement": "Stability of Vitamin Es in AB Red", "setting": "[2]; 24 days", "value": 24.3, "unit": "µg/mL"}, {"measurement": "Stability of Vitamin Es in AB Red", "setting": "[2]; 25 days", "value": 23.6, "unit": "µg/mL"}]}
